According to patent US12285431B2, “Treatment of Rb-negative tumors using topoisomerase inhibitors in combination with cyclin dependent kinase 4/6 inhibitors” (G1 Therapeutics, Inc., priority 2014, dated 2025):
“Also recorded” adds a separate entry of the source.

Columns and labels:
HS68 cells = experiment: G1 arrest (cellular G1 and S-phase) assay, propidium iodide flow cytometry; assay type: cell-based, human; details: Homo sapiens, Hs68, HS68 cells
Method: HS68 cells (human skin fibroblast cell line (Rb-positive)) were stained with propidium iodide staining solution and run on Dako Cyan Flow Cytometer. The fraction of cells in G0-G1 DNA cell cycle versus the fraction in S-phase DNA cell cycle was determined using FlowJo 7.2.2 analysis.
The compounds listed in Table 1 were tested for their ability to arrest HS68 cells at the G1 phase of the cell cycle.

[1] = test system: MCF7 (breast adenocarcinoma, Rb-positive); experiment: Cellular proliferation assay (CellTiter-Glo), MCF7; assay type: cell-based; details: Homo sapiens, MCF7, 144 h, cell viability after six days
Method: (§1) Further cellular proliferation assays were conducted using the following cancer cell lines: MCF7 (breast adenocarcinoma—Rb-positive), ZR-75-1 (breast ductal carcinoma—Rb-positive), H69 (human small cell lung cancer—Rb-negative) cells, or A2058 (human metastatic melanoma cells—Rb-negative). These cells were seeded in Costar (Tewksbury, Massachusetts) 3093 96 well tissue culture treated white walled/clear bottom plates. Cells were treated with the compounds of Table 1 as nine point dose response dilution series from 10 uM to 1 nM. Cells were exposed to compounds and then cell viability was determined after either four (H69) or six (MCF7, ZR75-1, A2058) days as indicated using the CellTiter-Glo® luminescent cell viability assay (CTG; Promega, Madison, Wisconsin, United States of America) following the manufacturer's recommendations. Plates were read on BioTek (Winooski, Vermont) Syngergy2 multi-mode plate reader. The Relative Light Units (RLU) were plotted as a result of variable molar concentration and data was analyzed using Graphpad (LaJolla, California) Prism 5 statistical software to determine the EC50 for each compound.

[2] = test system: ZR-75-1 (breast ductal carcinoma, Rb-positive); experiment: Cellular proliferation assay (CellTiter-Glo), ZR-75-1; assay type: cell-based; details: Homo sapiens, ZR-75-1, 144 h, cell viability after six days, read-out: ZR75-1 Cellular EC50
Method: as §1

[3] = test system: H69 (human small cell lung cancer, Rb-negative) cells; experiment: Cellular proliferation assay (CellTiter-Glo), H69; assay type: cell-based; details: NCI-H69, 96 h, cell viability after four days
Method: as §1

[4] = test system: A2058 (human metastatic melanoma cells, Rb-negative); experiment: Cellular proliferation assay (CellTiter-Glo), A2058; assay type: cell-based; details: A2058, 144 h, cell viability after six days
Method: as §1

[5] = Mouse pharmacokinetics (oral gavage / intravenous); assay type: in vivo, mice; details: for AUC 0-inf (uM * h) i.v.: 10 mg/kg intravenous injection; for AUC (uM * h) p.o. / Cmax / Tmax (h) p.o. / t1/2 (h) p.o.: 30 mg/kg oral gavage; for t1/2 (h) p.o.: 30 mg/kg
CDK6/CycD3 = CDK6/CycD3 (Homo sapiens, UniProt Q00534); experiment: CDK6/CycD3 kinase assay; details: read-out: CDK6/CycD3 IC50; Table 3
[6] = test system: 456 (395 non-mutant) kinases; experiment: DiscoveRx KINOMEscan profiling; assay type: binding; details: single concentration 1000 nM
[7] = test system: tHS68 cells (Rb-positive); experiment: Cell cycle arrest screen, tHS68; assay type: cell-based
Description: (§2) To test the ability of the disclosed CDK4/6 inhibitors to induce a clean G1-arrest, a cell based screening method was used consisting of two Rb-positive (tHS68 and WM2664) and one Rb-negative (A2058) cell line. […] At the conclusion of the experiment, cells were harvested, fixed, and stained with propidium iodide (a DNA intercalator), which fluoresces strongly red (emission maximum 637 nm) when excited by 488 nm light. Samples were run on Dako Cyan flow cytometer and >10,000 events were collected for each sample. Data were analyzed using FlowJo 2.2 software developed by TreeStar, Inc.

[8] = test system: WM2664 cells (Rb-positive); experiment: Cell cycle arrest screen, WM2664; assay type: cell-based; details: 24 hours
Description: as §2

[9] = test system: A2058 cells (Rb-negative); experiment: Cell cycle arrest screen, A2058; assay type: cell-based; details: 24 hours
Description: as §2

[10] = test system: Rb phosphorylation (Ser780, Ser807/811) in tHS68 cells; experiment: Rb phosphorylation western blot, tHS68; assay type: cell-based; details: tHS68, 300 nM, 4, 8, 16 and 24 hours
Method: (§3) The CDK4/6-cyclin D complex is essential for progression from G1 to the S-phase of the DNA cell cycle. This complex phosphorylates the retinoblastoma tumor suppressor protein (Rb). […] Samples were lysed and protein was assayed by western blot analysis. Rb phosphorylation was measured at two sites targeted by the CDK4/6-cyclin D complex, Ser780 and Ser807/811 using species specific antibodies.

[11] = test system: Rb phosphorylation (Ser780, Ser807/811) in WM2664 cells; experiment: Rb phosphorylation western blot, WM2664; assay type: cell-based; details: WM2664, 300 nM, 4, 8, 16 and 24 hours
Method: as §3

[12] = test system: Rb phosphorylation (Ser780, Ser807/811) in A2058 cells; experiment: Rb phosphorylation western blot, A2058; assay type: cell-based; details: A2058, 300 nM, 4, 8, 16 and 24 hours
Method: as §3

[13] = test system: NCI-H69 SCLC xenograft (Rb-negative); experiment: NCI-H69 SCLC xenograft model, Example 156; assay type: in vivo, mice; details: Compound T 100 mg/kg po qd×5×4; carboplatin 40 mg/kg and etoposide 4 mg/kg ip twice per week for 3 weeks; topotecan 0.6 mg/kg ip once daily for 5 days; FIG. 11
[14] = test system: NCI-H69 SCLC xenograft (Rb-negative); assay type: in vivo
Description: An Rb-negative model of small cell lung cancer was used in the following example. Briefly, xenografts of National Cancer Institute (NCI) […] cells were grafted onto the mice (Athymic Nude (Crl:NU(NCr)-Foxn1^nu); 6-12 week old females) using the South Texas Accelerated Research Therapeutics (START) Cell-Based Xenograft (START-CBX) tumor model. H69 cells are human small cell lung cancer cells and are Rb-negative.
Data collected from the efficacy study included animal weights, observations and tumor dimensions. This information was used to determine agent tolerability based on weight change and gross physiologic changes and anticancer activity based on tumor growth delay or regression. The designated endpoint for this study was an individual tumor volume of 1 cm^3 or 60 days following treatment initiation.
Tumor fragments from NCI-H69 were harvested from host animals and implanted into immune-deficient mice and the study initiated at a mean tumor volume of approximately 150-250 mm^3.
Additional details of the study are outlined in Table 6 below. […] Tumor size was examined twice per week and the endpoint for this study was Day 59.

[15] = Group 2: Compound T 100 mg/kg PO qdx5x4 and topotecan vehicle

CDK6/CycD3, sequence (Q00534 whole entry, species assumed): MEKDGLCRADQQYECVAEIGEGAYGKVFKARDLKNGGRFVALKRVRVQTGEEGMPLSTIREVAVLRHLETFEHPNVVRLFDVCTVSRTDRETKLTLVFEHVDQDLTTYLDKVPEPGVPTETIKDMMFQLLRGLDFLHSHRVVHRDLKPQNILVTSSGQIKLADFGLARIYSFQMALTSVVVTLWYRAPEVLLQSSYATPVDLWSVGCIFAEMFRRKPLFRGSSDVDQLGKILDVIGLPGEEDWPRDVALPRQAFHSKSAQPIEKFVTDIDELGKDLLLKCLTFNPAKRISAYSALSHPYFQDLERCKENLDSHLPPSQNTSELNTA
CDK6/CycD3, sequence (P30281 whole entry partner, species assumed): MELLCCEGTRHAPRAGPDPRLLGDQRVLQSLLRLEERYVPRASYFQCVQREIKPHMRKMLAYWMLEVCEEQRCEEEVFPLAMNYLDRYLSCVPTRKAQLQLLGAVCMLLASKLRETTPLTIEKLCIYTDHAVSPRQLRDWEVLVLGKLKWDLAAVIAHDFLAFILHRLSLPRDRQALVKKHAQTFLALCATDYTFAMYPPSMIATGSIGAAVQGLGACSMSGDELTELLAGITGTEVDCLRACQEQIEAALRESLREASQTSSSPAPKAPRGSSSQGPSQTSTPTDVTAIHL

## CC(C)N1CCN(c2ccc(Nc3ncc4cc5n(c4n3)C3(CCCCC3)CNC5=O)nc2)CC1 [Compound GG]
HS68 cells
  EC50: 0.08 µM
[1]
  EC50: 0.052 µM
[2]
  EC50: 0.062 µM
[3]
  EC50: 2.92 µM
[4]
  EC50: 2.69 µM
[5]
  AUC 0-inf (uM * h) i.v.: 1100 nM·h
  AUC (uM * h) p.o.: 1900 nM·h
  Cmax: 1.9 µM
  Tmax (h) p.o.: 1 h
  t1/2 (h) p.o.: 3.5 h
CDK6/CycD3
  IC50: 0.0047 µM

## CN1CCN(c2ccc(Nc3ncc4cc5n(c4n3)C3(CCCCC3)CNC5=O)nc2)CC1 [Compound T]
[6]
  number of 395 non-mutant kinases inhibited, inhibitory threshold 65%: 92
  number of 395 non-mutant kinases inhibited, inhibitory threshold 90%: 31
  number of 395 non-mutant kinases inhibited, inhibitory threshold 99%: 6
  share of 395 non-mutant kinases inhibited, inhibitory threshold 65%: 23.3%
  share of 395 non-mutant kinases inhibited, inhibitory threshold 90%: 7.8%
  share of 395 non-mutant kinases inhibited, inhibitory threshold 99%: 1.5%
HS68 cells
  EC50: 0.1 µM
[1]
  EC50: 0.049 µM
[2]
  EC50: 0.036 µM
[3]
  EC50: > 3 µM
[4]
  EC50: > 3 µM
[5]
  AUC 0-inf (uM * h) i.v.: 1300 nM·h
  AUC (uM * h) p.o.: 2900 nM·h
  Cmax: 2.5 µM
  Tmax (h) p.o.: 1 h
  t1/2 (h) p.o.: 5 h
[7]; 300 nM, 24 hours
  cell cycle distribution at 300 nM (in words): loss of the S-phase peak
[7]; 24 hours treatment, read-out: G1 cell cycle arrest EC50
  EC50: 0.08 µM
[7]; 24 hours, 28% at baseline
  S-phase fraction at the highest concentration shown: 6%
[7]; 24 hours, FIG. 9A
  cell cycle distribution, increasing concentrations (in words): robust G1 cell cycle arrest; also recorded: clean G1 arrest accompanied by a corresponding decrease in the number of cells in S-phase
[8]
  cell cycle distribution at 300 nM (in words): loss of the S-phase peak
[9]
  cell cycle distribution at 300 nM (in words): does not cause a loss of the S-phase peak
[10]
  Rb phosphorylation at Ser780 and Ser807/811 (in words): blocks Rb phosphorylation in Rb-positive cell lines by 16 hours post exposure; also recorded: reduced Rb-phosphorylation starting 16 hours after treatment
[11]
  Rb phosphorylation at Ser780 and Ser807/811 (in words): blocks Rb phosphorylation in Rb-positive cell lines by 16 hours post exposure; also recorded: reduced Rb-phosphorylation starting 16 hours after treatment
[12]
  Rb phosphorylation at Ser780 and Ser807/811 (in words): but not in the Rb-negative cell line (A2058)
[13]
  effect on tumor growth / tumor size (in words): very little effect of slowing tumor growth
[14]; Compound T alone 100 mg/kg, topotecan 0.6 mg/kg, combination with each Compound T dose (100, 50 or 10 mg/kg), FIG. 16
  activity toward NCI-H69 xenografts / tumor volume (in words): inactive
[14]; Compound T alone or thirty minutes before topotecan, FIG. 13
  tolerability: weight loss or toxicity (in words): well tolerated with no additive weight loss or toxicity
[14]; [15]
  CR (tumor volume < 15 mm^3): 0
  LTS (individual tumor volume < volume endpoint at study time endpoint): 0
  MTTE ± SD (timepoint in days to reach designated tumor volume or time endpoint): 14 ± 4 days
  PR (%) (tumor volume ≥ 50% regression versus Day 0): 0%
  T-C (difference in days between MTTE of treatment and control groups): <0 days
  TFS (complete responder at study endpoint): 0
